How the values were obtained:
[1] = test system: human embryonic stem cell line H1; experiment: Real-time PCR of definitive endoderm markers, H1 on human serum or […] (Examples 30, 31, 35); type: cell-based
Method: Cultures of the human embryonic stem cell line H1 at passage 55 were grown and differentiated on human serum (Sigma, #H1388, MO) coated plates. 0.5 ml of human serum was added to each well of 6 well tissue culture treated dish, incubated for 1 hr at room temperature, and aspirated before adding human embryonic stem cells. After cells reached 80% confluency, they were treated as follows: 2 days 0.5% FBS containing 10 ng/ml mouse recombinant Wnt3a (R&D) or 100 nM GSK-3B inhibitor IX (Catalog #361550, Calbiochem, CA) and 100 ng/mlActivin A (R&D). This was followed by 3 days 2% FBS plus 100 ng/mlActivin A. Cultures were then analyzed by real-time PCR (FIG. 46, panels a & b). […] These findings parallel our findings for human embryonic stem cells cultured on […]™ or human fibronectin coated plates.
The effectiveness of a number of commercially available GSK-3B inhibitors was evaluated in formation of DE from human embryonic stem cells. The following GSK-3B inhibitors were evaluated at 100 nM: GSK-3B inhibitor VIII (Catalog #361549, Calbiochem, CA), GSK-3B inhibitor IX (Catalog #361550, Calbiochem, CA), GSK-3B inhibitor XI (Catalog #361553, Calbiochem, CA), GSK-3B inhibitor XII (Catalog #361554, Calbiochem, CA). […] Control cultures were treated with low serum plus high dose of AA. FIG. 47, panels a and b depicts the gene expression of definitive endoderm markers at day 5. GSK-3B inhibitor IX and XI were both effective in inducing DE formation as compared to GSK-3B inhibitor VIII and XII.
The following combinations of WNT1+AA were tested:
a) 20 ng/ml of WNT1+100 ng/ml AA in 0.5% FBS+DM-F12 for days 1-2 followed by 2% FBS+DM-F12+100 ng/ml AA for day three, b) 20 ng/ml of WNT1+100 ng/ml AA in 0.5% FBS+DM-F12 for days 1-2 followed by 2% FBS+DM-F12+100 ng/ml AA for days 3-5, c) 10 ng/ml of WNT1+100 ng/ml AA in 0.5% FBS+DM-F12 for days 1-2 followed by 2% FBS+DM-F12+100 ng/ml AA for day three, d) 10 ng/ml of WNT1+100 ng/ml AA in 0.5% FBS+DM-F12 for days 1-2 followed by 2% FBS+DM-F12+100 ng/ml AA for days 3-5, e) 20 ng/ml of WNT1+100 ng/ml AA in 0.5% FBS+DM-F12 for days 1-2 followed by 2% FBS+DM-F12+100 ng/ml AA+20 ng/ml of WNT1 for day three, f) 20 ng/ml of WNT1+100 ng/ml AA in 0.5% FBS+DM-F12 for days 1-2 followed by 2% FBS+DM-F12+100 ng/ml AA+20 ng/ml of WNT1 for days 3-5.

[2] = test system: H9P49 embryonic stem cells; experiment: Real-time PCR of pancreatic endoderm markers, evaluation of retinoic acid analogues; type: cell-based, human
Method: At day 5, cells were collected for evaluation by FACS and real-time PCR. […] The resulting definitive endoderm cells at day 5 were exposed to the following media conditions to induce pancreatic endoderm formation: culturing in DMEM/F 12 media supplemented with 2% FBS and 1 μM all-trans retinoic acid (RA) (Catalog#R2625, Sigma, MO), or 0.1-10 μM AM-580 (4-[(5,6,7,8-Tetrahydro-5,5,8,8-tetramethyl-2-naphthalenyl)carboxamido]benzoic acid, Catalog #A8843, Sigma, MO), or 0.1-1 μM TTNPB (4-[(E)-2-(5,6,7,8-Tetrahydro-5,5,8,8-tetramethyl-2-naphthalenyl)-1-propenyl]benzoic acid Arotinoid acid, Catalog #T3757, Sigma, MO) for 3 days. AM-580 and TTNPB are retinoic acid analogs with affinity for retinoic acid receptors. RA treatment was followed by additional three day treatment in DMEM/F12 media supplemented with 2% FBS and 20-50 ng/ml bFGF (Catalog #F0291, Sigma, MO).

[3] = test system: human embryonic stem cell line H9; experiment: Real-time PCR of marker gene expression, H9 on MEF (Examples 2-7); type: cell-based
Method: Cells were harvested at the time points indicated in FIG. 3 and assayed by PCR for the expression of genes shown (FIGS. 3, 4 and 5).
After this time interval, the cells were then treated for six days with combinations of retinoic acid and FGF as outlined in Example 2, then the culture medium was removed and replaced with medium comprising DMEM/F12 with 2% FBS, containing the γ-secretase inhibitors L-685,458 at 10 μM for three days.
Cells were continuously cultured for another 3 to 5 days in basal medium with retinoic acid at 1 μM, alone or with bFGF. RNA samples were harvested from cells at various time points along this process to help evaluate the directed differentiation of the cells. Furthermore, culture medium and factors were regularly removed and replenished throughout the differentiation protocol.
RNA extraction, purification, and cDNA synthesis. RNA samples were purified by binding to a silica-gel membrane (Rneasy Mini Kit, Qiagen, CA) in the presence of an ethanol-containing, high-salt buffer followed by washing to remove contaminants. The RNA was further purified using a TURBO DNA-free kit (Ambion, INC), and high-quality RNA was then eluted in water. Yield and purity were assessed by A260 and A280 readings on a spectrophotometer. cDNA copies were made from purified RNA using an ABI (ABI, CA) high capacity cDNA archive kit.
Real-time PCR amplification and quantitative analysis.
Final data were expressed relative to a calibrator sample.

[4] = test system: pancreatic endoderm cells derived from human embryonic stem cells; experiment: Passage and expansion of pancreatic endoderm cells in culture; type: cell-based; conditions: 50 ng/ml FGF10; 6 day culture period
Method: The low serum DMEM/F12 contained 0% (v/v) fetal bovine serum (FBS) on day 1, 0.5% (v/v) FBS on day two and 2% (v/v) FBS on each day thereafter. After four days of differentiation, the cells were cultured in low serum DMEM/F12 contained 2% (v/v) FBS, 1 μM retinoic acid and 50 ng/ml bFGF for a total of six more days. After the six days of differentiation, the cells were maintained in culture in low serum DMEM/F12 contained 2% (v/v) FBS in the presence of 50 ng/ml FGF10 for a total of 6 days. During the six-day culture period, the pancreatic endoderm cells were passaged twice and cell population-doubling time is about 36 to 48 hours during this 6-day culture. On days 0, 3, and 6 of culture, Q-PCR was used to measure the expression of marker genes indicative of pancreatic endoderm.

[5] = 1 μM RA followed by exposure to bFGF

`O=C1NC(=O)C(c2cn(CCCO)c3ncccc23)=C1c1cnccn1` [GSK-3B inhibitor XI] was tested, and the “inducing DE formation” value ([1]; H1P54 on MATRIGEL, 100 nM for first two days, compared to GSK-3B inhibitor VIII and XII) was “effective”.

In the case of `CC1=C(/C=C/C(C)=C/C=C/C(C)=C/C(=O)O)C(C)(C)CCC1` [retinoic acid, all-trans retinoic acid, reference compound], the “foregut endoderm markers, such as CDX-2 and AFP” value [2, 5] is reported as “robust expression”, the “pancreatic endoderm markers, such as PDX-1” value [2, 5] is reported as “significantly upregulates” and the “expression of GLUT-2 and PTF1a” value ([3]; 1 μM retinoic acid and bFGF in the absence of activin A) is reported as “increase”. For the same molecule, the “expression of Pdx1” value ([3]; activin A or retinoic acid alone) was “did not induce”, the “expression of α-fetoprotein (AFP) and albumin” value ([3]; retinoic acid and FGF-4 for five days after 7 days activin A) was “further increased” and the “level of Pdx1 expression versus activin A treatment alone for 5 days” value ([3]; three days activin A, then 5 days 1 μM retinoic acid and 50 ng/ml bFGF in the absence of activin A) was “approximately 3500 fold”.

For `CC1(C)CCC(C)(C)c2cc(C(=O)Nc3ccc(C(=O)O)cc3)ccc21` [AM-580, 4-[(5,6,7,8-Tetrahydro-5,5,8,8-tetramethyl-2-naphthalenyl)carboxamido]benzoic acid], the “AFP and CDX-2 expression” value ([2]; 10 μM AM-580) was “suppressed” and the “expression of PDX-1” value ([2]; 10 μM AM-580) was “high expression”.

B1: Wnt-1: Wnt ligand (PeproTech, NJ, Catalogue #120-17) (protein, UniProt P04628 28-370, looked up)
Proto-oncogene Wnt-1: ANSSGRWWGIVNVASSTNLLTDSKSLQLVLEPSLQLLSRKQRRLIRQNPGILHSVSGGLQSAVRECKWQFRNRRWNCPTAPGPHLFGKIVNRGCRETAFIFAITSAGVTHSVARSCSEGSIESCTCDYRRRGPGGPDWHWGGCSDNIDFGRLFGREFVDSGEKGRDLRFLMNLHNNEAGRTTVFSEMRQECKCHGMSGSCTVRTCWMRLPTLRAVGDVLRDRFDGASRVLYGNRGSNRASRAELLRLEPEDPAHKPPSPHDLVYFEKSPNFCTYSGRLGTAGTAGRACNSSSPALDGCELLCCGRGHRTRTQRVTERCNCTFHWCCHVSCRNCTHTRVLHECL
For B1, the “definitive endoderm markers (Bry, CXCR4, GSC, SOX17, HNF-3B, and GATA-4)” value ([1]; H1P55 on MATRIGEL, 20 ng/ml Wnt1 with 100 ng/ml of AA) was “significant upregulation”.

B2: FGF10: member of the fibroblast growth factor family (protein, UniProt O15520 38-208, looked up)
Fibroblast growth factor 10: QALGQDMVSPEATNSSSSSFSSPSSAGRHVRSYNHLQGDVRWRKLFSFTKYFLKIEKNGKVSGTKKENCPYSILEITSVEIGVVAVKAINSNYYLAMNKKGKLYGSKEFNNDCKLKERIEENGYNTYASFNWQHNGRQMYVALNGKGAPRRGQKTRRKNTSAHFLPMVVHS
For B2, the “expression of the pancreatic endoderm marker Pdx1” value [4] was “maintained expression”.

Source: patent publication US20100255580A1, “Differentiation of Human Embryonic Stem Cells” (LIFESCCAN, INC., priority 2007, published 2010)
